In publication PMC11455950, “Effects of SZV-2649, a new multiple ion channel inhibitor mexiletine analogue” (Scientific Reports, 2024):

Test system: late sodium current (INaL)
Test: Whole-cell patch-clamp, late sodium current in dog ventricular myocytes
Assay type: cell-based
Settings: 10 µM, dog left ventricular myocytes
Procedure: The effects of SZV-2649 on transmemrane ionic currents were investigated in dog cardiac myocytes after a 5-minute superfusion of the drug.
The late sodium current (INaL) was investigated by application of 2-second-long test pulses to -20 mV from the holding potential of -120 mV with the pulsing cycle length of 5 s. In the internal (pipette) solution, KCl was replaced by 125 mM CsCl to block potassium currents and the external solution contained 1 µM nisoldipine, 0.5 µM HMR-1556 and 0.1 µM dofetilide in order to block ICaL, IKs and IKr currents, respectively.
Ventricular myocytes from Beagle dogs were enzymatically dissociated as described in detail previously. A single droplet of cell suspension was placed in a transparent recording chamber mounted on the stage of an inverted microscope (Olympus IX51, Olympus, Tokyo, Japan), and individual myocytes were allowed to settle and adhere to the chamber bottom for at least 5–10 min before superfusion was initiated and maintained by gravity. Only rod-shaped cells with clear striations were used. […]
The membrane currents were recorded with Axopatch-200B amplifiers (Molecular Devices, Sunnyvale, CA, USA) by means of the whole-cell configuration of the patch-clamp technique. […]

CC(N)COc1c(I)cc(C#N)cc1I.Cl (stereo not shown) [SZV-2649, 4-(2-aminopropoxy)-3,5-diiodobenzonitrile hydrochloride]
Effect on magnitude of INaL: significantly decreased
